Where two headings read alike, the source gives them in different places. Square brackets hold non-standard residues; d marks the D form. Peptide text beside a SMILES is read from it. * marks the point of attachment. X1 = Cc1ccc(Nc2ncc3c(n2)N(C)C(=O)N(c2cc(C(=O)*)ccc2C)C3)cn1; Aib = CC(C)(N)C(=O)O
How the values were obtained:
Format in all cases: biochemical
[1] = biological target: p38a/MAPK14 (Homo sapiens, UniProt Q16539); assay: IC50 inhibitory activity against p38a/MAPK14 kinase
Method: (§1) IC50 values were calculated by measuring the inhibitory activity against LCK, c-Src, p38a/MAPK14, ABL1, DDR1 and FGR kinases of the compounds of the present invention.

[2] = biological target: c-Src (Homo sapiens, UniProt P12931); assay: IC50 inhibitory activity against c-Src kinase
Method: as §1

[3] = biological target: ABL1 (T315I) (Homo sapiens, UniProt P00519, T315I); assay: IC50 inhibitory activity against ABL1 (T315I) kinase
Method: as §1

[4] = biological target: ABL1 (Homo sapiens, UniProt P00519); assay: IC50 inhibitory activity against ABL1 kinase
Method: as §1

[5] = biological target: LCK (Homo sapiens, UniProt P06239); assay: IC50 inhibitory activity against LCK kinase
Method: as §1

[6] = biological target: LYN (Homo sapiens, UniProt P07948); assay: IC50 inhibitory activity against LYN kinase
Chain of LYN (P07948 whole entry): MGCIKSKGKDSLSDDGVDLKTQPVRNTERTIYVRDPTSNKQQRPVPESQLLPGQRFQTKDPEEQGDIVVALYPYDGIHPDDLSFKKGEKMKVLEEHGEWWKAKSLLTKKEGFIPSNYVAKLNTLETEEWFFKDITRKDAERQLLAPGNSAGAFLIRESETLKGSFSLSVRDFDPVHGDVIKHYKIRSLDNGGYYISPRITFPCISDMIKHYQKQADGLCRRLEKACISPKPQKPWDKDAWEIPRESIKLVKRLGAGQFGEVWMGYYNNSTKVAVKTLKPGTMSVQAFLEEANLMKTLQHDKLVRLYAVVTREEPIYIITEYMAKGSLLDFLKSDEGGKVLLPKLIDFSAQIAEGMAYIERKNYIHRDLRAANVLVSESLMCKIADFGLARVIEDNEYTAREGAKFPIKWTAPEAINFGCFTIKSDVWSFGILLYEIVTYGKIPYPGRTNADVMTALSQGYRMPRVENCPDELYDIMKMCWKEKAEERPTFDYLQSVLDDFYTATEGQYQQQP

Chain of p38a/MAPK14 (Q16539 whole entry): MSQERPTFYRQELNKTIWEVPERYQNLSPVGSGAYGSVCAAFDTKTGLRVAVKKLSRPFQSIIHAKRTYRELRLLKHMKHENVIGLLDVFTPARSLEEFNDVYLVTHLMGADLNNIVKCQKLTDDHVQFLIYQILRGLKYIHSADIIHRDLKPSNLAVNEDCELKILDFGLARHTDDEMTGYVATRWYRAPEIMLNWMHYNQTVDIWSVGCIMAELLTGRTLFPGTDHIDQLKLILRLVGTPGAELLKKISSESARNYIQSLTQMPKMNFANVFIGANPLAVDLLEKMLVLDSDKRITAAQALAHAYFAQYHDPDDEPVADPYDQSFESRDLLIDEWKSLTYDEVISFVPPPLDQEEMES
Chain of c-Src (P12931 whole entry): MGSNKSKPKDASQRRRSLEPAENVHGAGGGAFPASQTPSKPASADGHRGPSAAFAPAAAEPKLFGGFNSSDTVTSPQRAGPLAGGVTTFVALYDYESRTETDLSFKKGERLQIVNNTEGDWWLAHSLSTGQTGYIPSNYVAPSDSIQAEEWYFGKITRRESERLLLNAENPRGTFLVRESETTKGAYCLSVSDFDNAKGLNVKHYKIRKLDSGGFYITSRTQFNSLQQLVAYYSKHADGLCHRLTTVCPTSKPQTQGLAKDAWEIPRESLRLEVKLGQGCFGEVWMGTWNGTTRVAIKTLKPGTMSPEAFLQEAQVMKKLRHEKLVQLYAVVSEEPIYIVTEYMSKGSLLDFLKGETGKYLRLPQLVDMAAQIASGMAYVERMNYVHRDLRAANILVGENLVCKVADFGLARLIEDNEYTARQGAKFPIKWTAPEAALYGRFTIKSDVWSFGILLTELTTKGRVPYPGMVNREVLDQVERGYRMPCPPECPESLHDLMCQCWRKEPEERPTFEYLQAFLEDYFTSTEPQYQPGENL
Chain of LCK (P06239 whole entry): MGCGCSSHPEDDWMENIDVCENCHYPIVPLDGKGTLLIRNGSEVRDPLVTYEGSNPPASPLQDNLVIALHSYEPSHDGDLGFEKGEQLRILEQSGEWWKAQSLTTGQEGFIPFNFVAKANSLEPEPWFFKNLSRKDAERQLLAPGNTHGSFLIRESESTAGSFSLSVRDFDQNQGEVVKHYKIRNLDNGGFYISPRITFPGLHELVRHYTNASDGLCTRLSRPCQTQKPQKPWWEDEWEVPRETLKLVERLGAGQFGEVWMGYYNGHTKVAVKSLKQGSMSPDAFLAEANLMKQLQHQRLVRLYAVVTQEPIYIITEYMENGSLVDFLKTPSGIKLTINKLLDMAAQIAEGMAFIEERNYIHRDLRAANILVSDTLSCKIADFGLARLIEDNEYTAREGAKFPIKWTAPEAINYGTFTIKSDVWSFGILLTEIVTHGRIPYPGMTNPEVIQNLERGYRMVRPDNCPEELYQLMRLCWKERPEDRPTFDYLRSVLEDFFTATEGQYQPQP

| SMILES | IC50 [1] [µM] | IC50 [2] [µM] | IC50 [3] [µM] | IC50 [4] [µM] | IC50 [5] [µM] | IC50 ([2]; read-out: c-Src IC50) [µM] | IC50 [6] [µM] | IC50 ([5]; read-out: LCK IC50) [µM] | IC50 ([1]; read-out: p38a/MAPK14 IC50) [µM] | IC50 ([3]; read-out: ABL1 (T315I) IC50) [µM] | IC50 ([4]; read-out: ABL1 IC50) [µM] |
| --- | --- | --- | --- | --- | --- | --- | --- | --- | --- | --- | --- |
| Cc1ccc(Nc2ncc3c(n2)N(C)C(=O)N(c2cc(C(=O)N[C@H](C(=O)N4CCC[C@@H]4C(=O)NC(C)(C)C(=O)N[C@@H](CC(C)C)C(=O)N(C)C)C(C)C)ccc2C)C3)cn1 [Example 2, (R)—N-(1-(((S)-1-(dimethylamino)-4-methyl-1-oxopentan-2-yl)amino)-2-methyl-1-oxopropan-2-yl)-1-((4-methyl-3-(1-methyl-7-((6-methylpyridin-3-yl)amino)-2-oxo-1,4-dihydropyrimido[4,5-d]pyrimidin-3(2H)-yl)benzoyl)-L-valyl)pyrrolidine-2-carboxamide] (X1-V[dP][Aib]L-NMe2) | > 0.6 | 0.2 to 0.4 | > 0.6 | 0.2 to 0.4 | 0.001 to 0.2 | – | – | – | – | – | – |
| CC1=N[C@H](Cc2ccccc2)C(=O)Nc2cc(C(=O)Nc3ccc(C)c(N4Cc5cnc(Nc6ccc(C)nc6)nc5N(C)C4=O)c3)ccc21 [Example 35, (R)-3-benzyl-5-methyl-N-(4-methyl-3-(1-methyl-7-((6-methylpyridin-3-yl)amino)-2-oxo-1,4-dihydropyrimido[4,5-d]pyrimidin-3(2H)-yl)phenyl)-2-oxo-2,3-dihydro-1H-benzo[e][1,4]diazepine-8-carboxamide] | – | – | – | – | – | 0.001 to 0.2 | 0.001 to 0.2 | 0.001 to 0.2 | – | – | – |
| Cc1ccc(Nc2ncc3c(n2)N(C)C(=O)N(c2cc(NC(=O)c4ccc5c(c4)N(C)C(=O)[C@H](CC(C)C)N=C5c4ccccc4)ccc2C)C3)cn1 [Example 37, (S)-3-isobutyl-1-methyl-N-(4-methyl-3-(1-methyl-7-((6-methylpyridin-3-yl)amino)-2-oxo-1,4-dihydropyrimido[4,5-d]pyrimidin-3(2H)-yl)phenyl)-2-oxo-5-phenyl-2,3-dihydro-1H-benzo[e][1,4]diazepine-8-carboxamide] | – | – | – | – | – | 0.001 to 0.2 | 0.001 to 0.2 | 0.001 to 0.2 | – | – | – |
| Cc1ccc(Nc2ncc3c(n2)N(C)C(=O)N(c2cc(NC(=O)c4ccc5c(c4)N(Cc4ccccc4)C(=O)[C@H](C)N=C5c4ccccc4)ccc2C)C3)cn1 [Example 31, (S)-1-benzyl-3-methyl-N-(4-methyl-3-(1-methyl-7-((6-methylpyridin-3-yl)amino)-2-oxo-1,4-dihydropyrimido[4,5-d]pyrimidin-3(2H)-yl)phenyl)-2-oxo-5-phenyl-2,3-dihydro-1H-benzo[e][1,4]diazepine-8-carboxamide] | – | – | – | – | – | 0.001 to 0.2 | 0.001 to 0.2 | 0.001 to 0.2 | 0.001 to 0.2 | > 0.6 | 0.001 to 0.2 |
| Cc1ccc(Nc2ncc3c(n2)N(C)C(=O)N(c2cc(NC(=O)c4ccc5c(c4)NC(=O)[C@H](Cc4ccccc4)N=C5c4ccccc4)ccc2C)C3)cn1 [Example 26, (S)-3-benzyl-N-(4-methyl-3-(1-methyl-7-((6-methylpyridin-3-yl)amino)-2-oxo-1,4-dihydropyrimido[4,5-d]pyrimidin-3(2H)-yl)phenyl)-2-oxo-5-phenyl-2,3-dihydro-1H-benzo[e][1,4]diazepine-8-carboxamide] | – | – | – | – | – | 0.001 to 0.2 | – | 0.001 to 0.2 | > 0.6 | > 0.6 | 0.001 to 0.2 |
| C=CCN1C(=O)[C@H](CC(C)C)N=C(c2ccccc2)c2ccc(C(=O)Nc3ccc(C)c(N4Cc5cnc(Nc6ccc(C)nc6)nc5N(C)C4=O)c3)cc21 [Example 38, (S)-1-allyl-3-isobutyl-N-(4-methyl-3-(1-methyl-7-((6-methylpyridin-3-yl)amino)-2-oxo-1,4-dihydropyrimido[4,5-d]pyrimidin-3(2H)-yl)phenyl)-2-oxo-5-phenyl-2,3-dihydro-1H-benzo[e][1,4]diazepine-8-carboxamide] | – | – | – | – | – | 0.2 to 0.4 | 0.001 to 0.2 | 0.001 to 0.2 | – | – | – |
| CC[C@@H](C)[C@H]1N=C(c2ccccc2)c2ccc(C(=O)Nc3ccc(C)c(N4Cc5cnc(Nc6ccc(C)nc6)nc5N(C)C4=O)c3)cc2NC1=O [Example 32, (R)-3-((R)-sec-butyl)-N-(4-methyl-3-(1-methyl-7-((6-methylpyridin-3-yl)amino)-2-oxo-1,4-dihydropyrimido[4,5-d]pyrimidin-3(2H)-yl)phenyl)-2-oxo-5-phenyl-2,3-dihydro-1H-benzo[e][1,4]diazepine-8-carboxamide] | – | – | – | – | – | 0.001 to 0.2 | – | 0.001 to 0.2 | 0.2 to 0.4 | > 0.6 | 0.001 to 0.2 |
| CC1=N[C@@H](Cc2ccccc2)C(=O)Nc2cc(C(=O)Nc3ccc(C)c(N4Cc5cnc(Nc6ccc(C)nc6)nc5N(C)C4=O)c3)ccc21 [Example 34, (S)-3-benzyl-5-methyl-N-(4-methyl-3-(1-methyl-7-((6-methylpyridin-3-yl)amino)-2-oxo-1,4-dihydropyrimido[4,5-d]pyrimidin-3(2H)-yl)phenyl)-2-oxo-2,3-dihydro-1H-benzo[e][1,4]diazepine-8-carboxamide] | – | – | – | – | – | 0.001 to 0.2 | 0.001 to 0.2 | 0.001 to 0.2 | – | – | – |

From US11530221B2, “Pyrimido[4,5-d]pyrimidin-2-one derivatives as protein kinase inhibitors” (KOREA INSTITUTE OF SCIENCE AND TECHNOLOGY, priority 2019, dated 2022)
